From patent US6808721B2, “Methods for coating pharmaceutical core tablets” (Boehringer Ingelheim Pharmaceuticals, Inc., priority 2001, dated 2004)
Values after ≈ are worked out from the molar mass of the structure shown.

Key:
[1] = Solubility of BIRB 796 drug substance; assay type: physicochemical; conditions: for solubility: polymorphic drug substance (Form IV)
Protocol: (§1) At least seven polymorphs of BIRB 796 have been isolated (the melt point of the drug is about 152° C. and the pKa about 6.1). The polymorphs generally exist in the form of elongated needles. BIRB 796 is relatively poorly soluble in physiological environments. The solubility of polymorphic BIRB 796 drug substance (Form IV) has been determined to be about 0.5 ug/ml at pH 7.4 and about 10 mg/ml at pH 2.0.

pKa of the drug = assay type: physicochemical
Protocol: as §1

[2] = Discoloration on exposure to light or heat; assay type: physicochemical; conditions: in the presence of light
Excerpt: It has been discovered that BIRB 796 may lead to discoloration of a core tablet in which it is contained when that core tablet is exposed to light or heat. […] Tablet coatings preferably comprise 2-3%, more preferably about 2.5%, by weight of the BIRB 796 tablet. Masking of the color change may also be used to create a pharmaceutically acceptable dosage form, as for example, mixing dry colorants (including yellow no. 10 iron oxide lake) into the formulation.

[3] = system: proinflammatory cytokines, such as tumor necrosis factor (TNF) and interleukin-1 (IL-1); conditions: disclosed in PCT/US99/29165 and U.S. Pat. No. 6,319,921; cited from earlier work

Cc1ccc(-n2nc(C(C)(C)C)cc2NC(=O)Nc2ccc(OCCN3CCOCC3)c3ccccc23)cc1 [BIRB 796, 1-(5-tert-butyl-2-p-tolyl-2H-pyrazol-3-yl)-3-[4-(2-morpholin-4-yl-ethoxy)-naphthalen-1-yl]-urea]
solubility ([1]; aqueous buffer, pH 7.4): ~0.5 µg/mL (≈ 0.000948 mM) | aqueous solubility ([1]; in words): poor aqueous solubility | solubility ([1]; simulated gastric fluid, pH 2.0): ~10000 µg/mL (≈ 19 mM) | pKa (pKa of the drug): ~6.1 | discoloration [2]: tendency to discolor in the presence of light | inhibitory activity with respect to proinflammatory cytokines [3]: unexpectedly significant inhibitory activity
